From patent US7767685B2, “Adenosine A2B receptor antagonists” (King Pharmaceuticals Research and Development, Inc., priority 2006, dated 2010)
Each block holds one compound with its values, some of them ahead of it.

Tests used:
[1] = biological target: T1, human A2B adenosine receptors (Homo sapiens, UniProt P29275); assay: Displacement of [3H]MRE2029F20 binding at human A2B adenosine receptors; details: [3H]MRE2029F20 displacement, human A2B receptors (footnote: HEK293 cells; method: CHO cells), n = 3-6; geometric mean (95% confidence limits); read-out: Ki hA2B
T1 construct: expressed in transfected cells; host or cells: CHO cells (whole cells)
T1 sequence (P29275 1-332): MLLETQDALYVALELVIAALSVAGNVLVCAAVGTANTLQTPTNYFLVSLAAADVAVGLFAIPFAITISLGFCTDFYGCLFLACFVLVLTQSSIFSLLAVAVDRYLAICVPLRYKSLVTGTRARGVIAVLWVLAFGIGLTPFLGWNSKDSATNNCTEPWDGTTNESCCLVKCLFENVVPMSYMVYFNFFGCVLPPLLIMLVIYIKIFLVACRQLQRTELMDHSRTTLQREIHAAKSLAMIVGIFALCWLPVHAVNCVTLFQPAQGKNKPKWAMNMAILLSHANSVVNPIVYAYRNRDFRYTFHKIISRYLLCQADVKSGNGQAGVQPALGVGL
Protocol: […] (Naunyn-Schmied. Arch Pharm. 1998, 357: 1-9). Briefly, the cells are grown adherently and maintained in Dulbecco's Modified Eagles Medium with nutrient mixture F12 (DMEM/F12) without nucleosides, containing 10% fetal calf serum, penicillin (100 U/mL), streptomycin (100 μg/mL), L-glutamine (2 mM) and Geneticin (G418, 0.2 mg/ml) at 37° C. in 5% CO2/95% air. For membrane preparation the culture medium is removed and the cells are washed with phosphate-buffered saline and scraped off T75 flasks in ice-cold hypo tonic buffer (5 mM Tris HCl, 1 mM EDTA, pH 7.4). The cell suspension is homogenized with Polytron, the homogenate is spun for 10 min at 1000×g and the supernatant is then centrifuged for 30 min at 100,000×g. The membrane pellet is suspended in 50 mM Tris HCl buffer (pH 7.4) for A1 adenosine receptors, in 50 mM Tris HCl, 10 mM MgCl2 (pH 7.4) for A2A adenosine receptors, in 50 mM Tris HCl, 10 mM MgCl2, 1 mM EDTA (pH 7.4) for A2B and A3 adenosine receptors.
All new synthesized compounds have been tested to evaluate their affinity to human A1, A2A, A2B and A3 adenosine receptors. […] Pharmacol., 2000, 57: 968-975). Non-specific binding is determined in the presence of 10 μM of CHA and this is always ≦10% of the total binding. […] recombinant A2A adenosine receptors is performed using a suspension of membranes (50 μg of protein/assay) and at least 6-8 different concentrations of studied antagonists for an incubation time of 60 min at 4° C. Non-specific binding is determined in the presence of 1 μM ZM 241385 and is about 20% of total binding. […] Non-specific binding is defined as binding in the presence of 1 μM MRE 3029F20 and is about 25% of total binding. […] Non-specific binding is defined as binding in the presence of 1 μM MRE 3008F20 and is about 25% of total binding. Bound and free radioactivity are separated by filtering the assay mixture through Whatman GF/B glass fiber filters using a Micro-Mate 196 cell harvester (Packard Instrument Co.). The filter bound radioactivity is counted on a Top Count (efficiency 57%) with Micro-Scint 20.
(§1) The protein concentration is determined according to a Bio-Rad method (Bradford, Anal Biochem. 1976, 72: 248-254) with bovine albumin as a standard reference. Inhibitory binding constant, Ki, values are calculated from those of IC50 according to Cheng & Prusoff equation (Biochem. Pharmacol 1973, 22: 3099-3108): Ki=IC50/(1+[C*]/KD*) where [C*] is the concentration of the radioligand and KD* its dissociation constant. A weighted non linear least-squares curve fitting program LIGAND (Munson et al., Anal. Biochem 1980, 107: 220-239) is used for computer analysis of inhibition experiments Data are expressed as geometric mean with 95% confidence limits in parentheses. Examples of Animal Models

[2] = biological target: T1, human A2B adenosine receptors; assay: cAMP assay in CHO cells expressing human A2B adenosine receptors (antagonism of NECA-induced cAMP); type: cell-based; details: antagonism of NECA (100 nM)-induced cAMP, geometric mean (95% confidence limits), read-out: IC50 hA2B (cAMP assay)
Protocol: Measurement of Cyclic AMP Levels in CHO Cells Transfected with Human A2B Adenosine Receptors
CHO cells transfected with human A2B adenosine receptors are washed with phosphate-buffered saline, diluted trypsine and centrifuged for 10 min at 200 g. The pellet containing the CHO cells (1×10^6 cells/assay) is suspended in 0.5 mL of incubation mixture: NaCl 150 mM, KCl 2.7 mM, NaH2PO4 0.37 mM, MgSO4 1 mM, CaCl2 1 mM, Hepes 5 mM, MgCl2 10 mM, glucose 5 mM, pH 7.4 at 37° C. Then 2.0 IU/mL adenosine deaminase and 0.5 mM 4-(3-butoxy-4-methoxybenzyl)-2-imidazolidinone (Ro 20-1724) as phosphodiesterase inhibitor are added and preincubated for 10 min a shaking bath at 37° C. The potency of antagonists studied are determined by antagonism of NECA (100 nM)-induced stimulation of cyclic AMP levels. The reaction is terminated by the addition of cold 6% thrichloroacetic acid (TCA). The TCA suspension is centrifuged at 2000 g for 10 min at 4° C. and the supernatant is extracted four times with water saturated diethyl ether. The final aqueous solution is tested for cyclic AMP levels by a competition protein binding assay. Samples of cyclic AMP standard ([…]) are added to each test tube containing the incubation buffer (trizma base 0.1 M, aminophylline 8.0 mM, 2-mercaptoethanol 6.0 mM (pH 7.4) and [^3H]cyclic AMP in a total volume of 0.5 mL. The binding protein previously prepared from beef adrenals, is added to the samples previously incubated at 4° C. for 150 min, and after the addition of charcoal are centrifuged at 2000 g for 10 min. The clear supernatant is counted with 4 mL of Atomlight liquid scintillator and counted in a Tri Carb Packard 2500 TR scintillation counter.
as §1

[3] = biological target: T2, human A1 adenosine receptors (Homo sapiens, UniProt P30542); assay: Displacement of [3H]DPCPX binding at human A1 adenosine receptors expressed in CHO cells; details: [3H]DPCPX displacement, n = 3-6, geometric mean (95% confidence limits), read-out: Ki hA1
T2 construct: expressed in transfected cells; host or cells: CHO cells (membranes)
T2 sequence (P30542 1-326): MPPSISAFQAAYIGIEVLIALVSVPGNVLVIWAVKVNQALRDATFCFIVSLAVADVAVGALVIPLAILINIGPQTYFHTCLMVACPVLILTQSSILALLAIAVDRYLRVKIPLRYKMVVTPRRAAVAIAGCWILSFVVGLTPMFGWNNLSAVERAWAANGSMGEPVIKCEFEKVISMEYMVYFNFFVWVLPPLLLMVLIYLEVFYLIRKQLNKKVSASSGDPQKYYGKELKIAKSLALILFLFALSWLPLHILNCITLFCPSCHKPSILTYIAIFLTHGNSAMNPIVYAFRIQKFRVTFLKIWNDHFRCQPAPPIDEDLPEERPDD
Protocol: (§2) The human adenosine receptors have been transfected in CHO cells according with the method previously described by Klotz et al. (Naunyn-Schmied. Arch Pharm. 1998, 357: 1-9). Briefly, the cells are grown adherently and maintained in Dulbecco's Modified Eagles Medium with nutrient mixture F12 (DMEM/F12) without nucleosides, containing 10% fetal calf serum, penicillin (100 U/mL), streptomycin (100 μg/mL), L-glutamine (2 mM) and Geneticin (G418, 0.2 mg/ml) at 37° C. in 5% CO2/95% air. For membrane preparation the culture medium is removed and the cells are washed with phosphate-buffered saline and scraped off T75 flasks in ice-cold hypo tonic buffer (5 mM Tris HCl, 1 mM EDTA, pH 7.4). The cell suspension is homogenized with Polytron, the homogenate is spun for 10 min at 1000×g and the supernatant is then centrifuged for 30 min at 100,000×g. The membrane pellet is suspended in 50 mM Tris HCl buffer (pH 7.4) for A1 adenosine receptors, in 50 mM Tris HCl, 10 mM MgCl2 (pH 7.4) for A2A adenosine receptors, in 50 mM Tris HCl, 10 mM MgCl2, 1 mM EDTA (pH 7.4) for A2B and A3 adenosine receptors.
(§3) All new synthesized compounds have been tested to evaluate their affinity to human A1, A2A, A2B and A3 adenosine receptors. Displacement experiments of [^3H]-DPCPX to CHO cells transfected with the human recombinant A1 adenosine receptors are performed for 120 min at 25° C. incubating diluted membranes (50 μg of protein/assay) and at least 6-8 different concentrations of examined antagonists (Varani et al., Mol. Pharmacol., 2000, 57: 968-975). Non-specific binding is determined in the presence of 10 μM of CHA and this is always ≦10% of the total binding. Binding of [^3H]-ZM 241385 to CHO cells transfected with the human recombinant A2A adenosine receptors is performed using a suspension of membranes (50 μg of protein/assay) and at least 6-8 different concentrations of studied antagonists for an incubation time of 60 min at 4° C. Non-specific binding is determined in the presence of 1 μM ZM 241385 and is about 20% of total binding. Competition binding experiments of [^3H]-MRE 2029F20 to CHO cells transfected with the human recombinant A2B adenosine receptors are carried out incubating for 120 min at 4° C. diluted membranes (50 μg of protein/assay) and at least 6-8 different concentrations of examined compounds. Non-specific binding is defined as binding in the presence of 1 μM MRE 3029F20 and is about 25% of total binding. Competition binding experiments of [^3H]-MRE 3008F20 to CHO cells transfected with the human recombinant A3 adenosine receptors^5 are carried out incubating for 120 min at 4° C. diluted membranes (50 μg of protein/assay) and at least 6-8 different concentrations of examined ligands. Non-specific binding is defined as binding in the presence of 1 μM MRE 3008F20 and is about 25% of total binding. Bound and free radioactivity are separated by filtering the assay mixture through Whatman GF/B glass fiber filters using a Micro-Mate 196 cell harvester (Packard Instrument Co.). The filter bound radioactivity is counted on a Top Count (efficiency 57%) with Micro-Scint 20.
as §1

[4] = biological target: T3, human A2A adenosine receptors (Homo sapiens, UniProt P29274); assay: Displacement of [3H]ZM241385 binding at human A2A adenosine receptors expressed in CHO cells; details: [3H]ZM241385 displacement, n = 3-6, geometric mean (95% confidence limits), read-out: Ki hA2A
T3 construct: expressed in transfected cells; host or cells: CHO cells (membranes)
T3 sequence (P29274 whole entry): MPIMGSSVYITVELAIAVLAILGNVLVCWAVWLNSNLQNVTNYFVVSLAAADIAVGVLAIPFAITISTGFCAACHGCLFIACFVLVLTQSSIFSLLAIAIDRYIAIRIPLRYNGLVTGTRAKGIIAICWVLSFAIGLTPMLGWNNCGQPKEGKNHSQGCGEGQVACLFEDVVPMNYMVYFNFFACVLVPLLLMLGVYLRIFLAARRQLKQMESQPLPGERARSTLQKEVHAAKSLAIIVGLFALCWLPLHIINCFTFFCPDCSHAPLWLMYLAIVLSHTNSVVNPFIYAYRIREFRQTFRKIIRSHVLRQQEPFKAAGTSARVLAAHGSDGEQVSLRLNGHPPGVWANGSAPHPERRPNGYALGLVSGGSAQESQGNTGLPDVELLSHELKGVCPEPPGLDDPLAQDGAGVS
Protocol: as §2, §3, §1

Compound: CCCn1c(=O)c2[nH]c(-c3cc(CC)n(CC(=O)Nc4ccc(Cl)cc4)n3)nc2n(CCC)c1=O [Example 9]
Ki [3]: > 1000 nM
Ki [4]: > 1000 nM
IC50 [2]: > 1000 nM
melting point: 256 to 257 °C

Compound: CCCn1c(=O)c2[nH]c(-c3cc(C)n(CC(=O)Nc4ccc(N(C)C)cc4)n3)nc2n(CCC)c1=O [Example 11, 2-[3-(2,6-Dioxo-1,3-dipropyl-2,3,6,7-tetrahydro-1H-purin-8-yl)-5-methyl-pyrazol-1-yl]-N-(4-dimethylaminophenyl)-acetamide]
Ki [3]: > 1000 nM
Ki [4]: > 1000 nM
IC50 [2]: > 1000 nM
melting point: > 300 °C

Compound: CCCn1c(=O)c2[nH]c(-c3cc(C)n(CC(=O)Nc4cccc5ccccc45)n3)nc2n(CCC)c1=O [Example 13, 2-[3-(2,6-Dioxo-1,3-dipropyl-2,3,6,7-tetrahydro-1H-purin-8-yl)-5-methyl-pyrazol-1-yl]-N-(naphthalen-1-yl)-acetamide]
Ki [3]: > 1000 nM
Ki [4]: > 1000 nM
IC50 [2]: > 1000 nM
melting point: > 300 °C

Compound: CCCn1c(=O)c2[nH]c(-c3nn(CC(=O)Nc4ccc(Cl)cc4)c(C)c3I)nc2n(CCC)c1=O [Example 20, 2-[4-Iodo-3-(2,6-dioxo-1,3-dipropyl-2,3,6,7-tetrahydro-1H-purin-8-yl)-5-methyl-pyrazol-1-yl]-N-(4-chlorophenyl)-acetamide]
Ki [3]: > 1000 nM
Ki [4]: > 1000 nM
IC50 [2]: > 1000 nM
melting point: 296 to 297 °C

Compounds with a lower IC50 [2], results first:

Ki [1]: 35 nM
IC50 [2]: 156 nM
melting point: 270 to 273 °C
Compound: CCCn1c(=O)c2[nH]c(-c3cc(C)n(CC(=O)Nc4ccc(Br)cc4)n3)nc2n(CCC)c1=O [Example 3, 2-[3-(2,6-Dioxo-1,3-dipropyl-2,3,6,7-tetrahydro-1H-purin-8-yl)-5-methyl-pyrazol-1-yl]-N-(4-bromophenyl)acetamide]

Ki [1]: 7 nM
IC50 [2]: 43 nM
melting point: 261 to 265 °C
Compound: CCCn1c(=O)c2[nH]c(-c3cc(C)n(CC(=O)Nc4ccc(Cl)cc4)n3)nc2n(CCC)c1=O [Example 4, 2-[3-(2,6-Dioxo-1,3-dipropyl-2,3,6,7-tetrahydro-1H-purin-8-yl)-5-methyl-pyrazol-1-yl]-N-(4-chlorophenyl)-acetamide]
